Measurements from patent publication US12399427B2, “Photobase generator, compound, photoreactive composition and reaction product” (Tokyo University of Science Foundation, priority 2019, dated 2025).

Tests used:
[1] = Production of reaction product using photoreactive composition including compound (2) (Test Example 12); details: 365 nm, up to 10000 mJ/cm^2, post-bake 160° C. 20 minutes
Experimental: Polyglycidylmethyl acrylate (PGMA, 0.1 g, molecular weight; 22000) showing the structure above, the compound (2) (0.005 g) and tetrahydrofuran (1 g) were blended and stirred at 25° C. for 1 minute to obtain a photoreactive composition.
The photoreactive compositions obtained above was applied onto a silicon wafer by a spin coating method under the conditions of 1500 rpm and 30 seconds. Next, after heating (pre-baking) this coating film (photoreactive composition layer) at 100° C. for 1 minutes, using a Hg—Xe lamp, the coating film was irradiated with light having a wavelength of 365 nm with an illuminance of 50 mW/cm^2 and the exposure doses of 0 mJ/cm^2 to 10000 mJ/cm^2. After light irradiation, the coating film was heated (post-baked) 160° C. for 20 minutes. The coating film after heated was developed with tetrahydrofuran for 30 seconds, and then the ratio of the thickness of the coating film after development to the coating film before light irradiation was measured.

[2] = Behavior of compound in methanol under light irradiation with wavelength of 313 nm or 365 nm (absorbance; Test Examples 1, 2, 8, 9); format: physicochemical; details: 2.0×10^−5 mol/L; for molar absorption coefficient ε313: 313 nm; for molar absorption coefficient ε365: 365 nm
Experimental: (§1) The compound (1)-1 obtained above was dissolved in methanol so as to have a concentration of 2.0×10^−5 mol/L. Then, using a mercury xenon lamp, the illuminance was set to 5 mW/cm^2, the exposure doses were set to 0, 10, 30, 60 and 100 mJ/cm^2, and the obtained methanol solution was irradiated with light having a wavelength of 313 nm. Then, the absorbance of the compound (1)-1 was measured.
as §1, with “using an LED” for “using a mercury xenon”, “to 10” for “to 5”, “of 365” for “of 313”
as §1, with “compound (1)-2” for “compound (1)-1”, “to 10” for “to 5”, “0,” for “0, 10,”, “30, 100, 200” for “30, 60”, “and 300” for “and 100”
The compound (1)-2 obtained above was dissolved in methanol so as to have a concentration of 2.0×10^−5 mol/L. Then, using an LED lamp, the illuminance was set to 10 mW/cm^2, the exposure doses were set to 0, 30, 100, 200 and 300 mJ/cm^2, and the obtained methanol solution was irradiated with light having a wavelength of 365 nm. Then, the absorbance of the compound (1)-2 was measured.

[3] = Solubility of the compound in solvents (amount of solvent required to dissolve 10 mg); format: physicochemical
Experimental: Moreover, the solubility of the compound (1)-1 in the solvent was confirmed. Specifically, the amount of the solvent required to dissolve 10 mg of the compound (1)-1 was confirmed for each solvent. The amount of the solvent required was from 1 mL to 5 mL when tetrahydrofuran or acetone was used, and 1 mL or less when cyclopentanone, methanol or dimethyl sulfoxide was used.

Row | Structure (SMILES) | production of an insolubilized reaction product [1] | molar absorption coefficient ε313 [2] [L/mol/cm] | molar absorption coefficient ε365 [2] [L/mol/cm] | amount of the solvent required to dissolve 10 mg ([3]; cyclopentanone) [mL] | amount of the solvent required to dissolve 10 mg ([3]; dimethyl sulfoxide) [mL] | amount of the solvent required to dissolve 10 mg ([3]; methanol) [mL]
1 | O=C(/C=C/c1ccccc1O)NC1CCCCC1 [compound (2)] | could not be produced |  |  |  |  | 
2 | CN(C(=O)/C=C/c1ccccc1O)c1ccncc1 [compound (1)-2] |  | 13000 | 3200 |  |  | 
3 | O=C(/C=C/c1ccccc1O)Nc1ccncc1 [compound (1)-1] |  | 23000 | 6900 | ≤ 1 | ≤ 1 | ≤ 1
